Results on 17 molecules are retold here after patent US20210221785A1, “AMINO-PYRIMIDONYL DERIVATIVES, A PROCESS FOR THEIR PREPARATION AND PHARMACEUTICAL COMPOSITIONS CONTAINING THEM” (LES LABORATOIRES SERVIER, priority 2018, published 2021).

T1 sequence (Q93009 208-560 C315A): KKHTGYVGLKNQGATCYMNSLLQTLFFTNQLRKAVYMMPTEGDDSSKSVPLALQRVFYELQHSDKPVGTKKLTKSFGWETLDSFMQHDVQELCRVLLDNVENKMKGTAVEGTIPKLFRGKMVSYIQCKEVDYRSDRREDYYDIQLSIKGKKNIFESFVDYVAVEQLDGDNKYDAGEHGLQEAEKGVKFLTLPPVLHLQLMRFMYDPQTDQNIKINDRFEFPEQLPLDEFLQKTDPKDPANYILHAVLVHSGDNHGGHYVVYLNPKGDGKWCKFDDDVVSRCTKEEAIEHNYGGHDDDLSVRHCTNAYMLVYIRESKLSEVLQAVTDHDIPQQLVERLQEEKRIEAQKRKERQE

This assay concerns the target T1, His-His-USP7 (aa208-560, |C315A|) (Homo sapiens, UniProt Q93009, C315A).
T1 construct: His-His-USP7 (aa208-560, |C315A|); His-His (N)
Nature of the assay: Evaluation of the inhibition of USP7 by the Fluorescence Intensity (FLINT) readings. Format: biochemical. The settings on record: 0.25 nM His-His-USP7, compound incubated 60 minutes at 30° C., 500 nM Ubiquitin-Rhodamine-110 substrate; 50% reduction in kinetic rate. As to the method: USP7 activity was measured using Rhodamine-110 c-terminal labelled Ubiquitin as a substrate (UbiQ Bio). Incubation with USP7 results in the release of Rhodamine-110 leading to an increase in fluorescence which can be used in the continuous measurement of USP7 activity.
The USP7 reactions were performed in a 50 μL volume, in 384 well black solid low binding plates (Corning #3575). The reaction buffer consisted of 100 mM Bicine pH 8.0, 0.01% TritonX100, 1 mM TCEP, and 10% DMSO.
0.25 nM His-His-USP7 (aa208-560, |C315A|) was incubated with compound (final concentration 10% DMSO) for 60 minutes at 30° C. The reaction was then initiated by the addition of 500 nM Ubiquitin-Rhodamme-110 substrate and the plate read every 3 minutes for 21 minutes to measure the release of Rhodamine-110. Fluorescence Intensity (FLINT) readings were measured using a […] plate reader (Ex.485 nm, Em.535 nm).
The inhibition of increasing doses of compound was expressed as a percentage reduction in kinetic rate compared to the kinetic rates established between ‘DMSO only’ and ‘total inhibition’ controls (no USP7). The inhibitory concentrations that gave a 50% reduction in kinetic rate (IC50) were determined, from 11-point dose response cures, in XL-Fit using a 4-Parameter Logistic Model 205 (Sigmoidal Dose-Response Model).
The term IC50 denotes the concentration that inhibits the measured activity by half. A lower IC50 goes with greater potency in that assay. For `Nc1c(Oc2ccc(F)cc2)ncn(CC2(O)CCN(C(=O)[C@@H]3CCC(F)(F)C[C@H]3c3ccco3)CC2)c1=O` (relative stereo) [Example 88, 5-amino-3-({1-[(1,2-trans)-4,4-difluoro-2-(furan-2-yl)cyclohexane-1-carbonyl]-4-hydroxypiperidin-4-yl}methyl)-6-(4-fluorophenoxy)pyrimidin-4(3H)-one], the midpoint of inhibition, the IC50, lay at 0.111 µM.

`C#C[C@@]1(O)CC[C@@H](C(=O)N2CCC(O)(Cn3cnc(Oc4ccc(F)cc4)c(N)c3=O)CC2)[C@H](c2ccccc2)C1` (relative stereo) [Example 91, rel-5-amino-3-([1-[(1R,2R,4R)-4-ethynyl-4-hydroxy-2-phenyl-cyclohexanecarbonyl]-4-hydroxypiperidin-4-yl]methyl)-6-(4-fluorophenoxy)-3,4-dihydropyrimidin-4-one] registered an IC50 of 0.289 µM.

`Nc1c(Oc2ccc(F)cc2)ncn(CC2(O)CCN(C(=O)[C@@H]3CC[C@](O)(Cc4cnccn4)C[C@H]3c3ccccc3)CC2)c1=O` (relative stereo) [Example 98, rel-5-amino-6-(4-fluorophenoxy)-3-[(4-hydroxy-1-{([(1R,2R,4R)-4-hydroxy-2-phenyl-4-(pyrazin-2-ylmethyl)cyclohexyl]carbonyl}piperidin-4-yl)methyl]pyrimidin-4-one] showed an IC50 of 0.223 µM.

For `Nc1c(Oc2ccc(F)cc2)ncn(CC2(O)CCN(C(=O)[C@@H]3CC[C@@](O)(Cc4ccc(F)cc4)C[C@H]3c3ccccc3)CC2)c1=O` (relative stereo) [Example 100, rel-5-amino-6-(4-fluorophenoxy)-3-[(1-{[(1R,2R,4S)-4-[(4-fluorophenyl)methyl]-4-hydroxy-2-phenylcyclohexyl]carbonyl}-4-hydroxypiperidin-4-yl)methyl]pyrimidin-4-one], the midpoint of inhibition, the IC50, lay at 0.244 µM.

In turn, `Cn1ccnc1C[C@@]1(O)CC[C@@H](C(=O)N2CCC(O)(Cn3cnc(Oc4ccc(F)cc4)c(N)c3=O)CC2)[C@H](c2ccccc2)C1` (relative stereo) [Example 101, rel-5-amino-6-(4-fluorophenoxy)-3-({4-hydroxy-1-[(1R,2R,4R)-4-hydroxy-4-[(1-methyl-1H-imidazol-2-yl)methyl]-2-phenyl-cyclohexanecarbonyl]piperidin-4-yl)}methyl)-3,4-dihydropyrimidin-4-one] registered an IC50 of 0.363 µM.

Consider `Nc1c(Oc2ccc(F)cc2)ncn(CC2(O)CCN(C(=O)[C@@H]3CC[C@](O)(c4ccccc4)C[C@H]3c3ccccc3)CC2)c1=O` (relative stereo) [Example 102, rel-5-amino-6-(4-fluorophenoxy)-3-[(4-hydroxy-1-{[(1R,2R,4R)-4-hydroxy-2,4-diphenylcyclohexyl]carbonyl}piperidin-4-yl)methyl]pyrimidin-4-one], for which it took 0.461 µM to reach half-maximal inhibition (IC50).

`Nc1c(Oc2ccc(F)cc2)ncn(CC2(O)CCN(C(=O)[C@@H]3CC[C@@](O)(c4ccccc4)C[C@H]3c3ccccc3)CC2)c1=O` (relative stereo) [Example 103, rel-5-amino-6-(4-fluorophenoxy)-3-[(4-hydroxy-1-{[(1R,2R,4S)-4-hydroxy-2,4-diphenylcyclohexyl]carbonyl}piperidin-4-yl)methyl]pyrimidin-4-one] came in with an IC50 of 0.312 µM.

In turn, `CC1(F)CC[C@@H](C(=O)N2CCC(O)(Cn3cnc(-c4ccc(F)cc4)c(N)c3=O)CC2)[C@H](c2ccccc2)C1` (relative stereo) [Example 127, rel-5-amino-3-[(1-{[(1R,2R)-4-fluoro-4-methyl-2-phenylcyclohexyl]carbonyl}-4-hydroxypiperidin-4-yl)methyl]-6-(4-fluorophenyl)pyrimidin-4-one] displayed a 50% inhibitory concentration (IC50) of 0.0466 µM.

`Nc1c(Oc2ccccc2F)ncn(CC2(O)CCN(C(=O)[C@@H]3CCC(F)(F)C[C@H]3c3ccccc3)CC2)c1=O` [Example 2, 5-amino-3-({1-[(1R,2R)-4,4-difluoro-2-phenylcyclohexane-1-carbonyl]-4-hydroxypiperidin-4-yl}methyl)-6-(2-fluorophenoxy)pyrimidin-4(3H)-one] returned a concentration for half-maximal inhibition (IC50) of 0.304 µM.

As for `COc1cccc(Oc2ncn(CC3(O)CCN(C(=O)[C@@H]4CCC(F)(F)C[C@H]4c4ccccc4)CC3)c(=O)c2N)c1` [Example 4, 5-amino-3-({1-[(1R,2R)-4,4-difluoro-2-phenylcyclohexane-1-carbonyl]-4-hydroxypiperidin-4-yl}methyl)-6-(3-methoxyphenoxy)pyrimidin-4(3H)-one], the concentration for half-maximal inhibition (IC50) worked out at 0.0938 µM.

In turn, `Nc1c(Oc2cccc(F)c2)ncn(CC2(O)CCN(C(=O)[C@@H]3CCC(F)(F)C[C@H]3c3ccccc3)CC2)c1=O` [Example 6, 5-amino-3-({1-[(1R,2R)-4,4-difluoro-2-phenylcyclohexane-1-carbonyl]-4-hydroxypiperidin-4-yl}methyl)-6-(3-fluorophenoxy)pyrimidin-4(3H)-one] registered an IC50 of 0.183 µM.

Molecule `COc1cc(OC)cc(Oc2ncn(CC3(O)CCN(C(=O)[C@@H]4CCC(F)(F)C[C@H]4c4ccccc4)CC3)c(=O)c2N)c1` [Example 7, 5-amino-3-({1-[(1R,2R)-4,4-difluoro-2-phenylcyclohexane-1-carbonyl]-4-hydroxypiperidin-4-yl}methyl)-6-(3,5-dimethoxyphenoxy)pyrimidin-4(3H)-one] showed an IC50 of 0.181 µM.

The molecule `Nc1c(Oc2cc(F)cc(F)c2)ncn(CC2(O)CCN(C(=O)[C@@H]3CCC(F)(F)C[C@H]3c3ccccc3)CC2)c1=O` [Example 8, 5-amino-6-(3,5-difluorophenoxy)-3-({1-[(1R,2R)-4,4-difluoro-2-phenylcyclohexane-1-carbonyl]-4-hydroxypiperidin-4-yl}methyl)pyrimidin-4(3H)-one] displayed an IC50 of 0.472 µM.

Regarding `Nc1c(Oc2ccccc2)ncn(C[C@]2(O)CCN(C(=O)[C@@H]3CCC(F)(F)C[C@H]3c3ccccc3)CC2(F)F)c1=O` [Example 10, 5-amino-3-[[(4R)-1-[(1R,2R)-4,4-difluoro-2-phenyl-cyclohexanecarbonyl]-3,3-difluoro-4-hydroxy-4-piperidyl]methyl]-6-phenoxy-pyrimidin-4-one], half-maximal inhibition (IC50) was put at 4.32 µM.

`O=C([C@@H]1CCC(F)(F)C[C@H]1c1ccccc1)N1CCC(O)(Cn2cnc(Oc3ccccc3)c(NCC(F)(F)F)c2=O)CC1` [Example 17, 3-({1-[(1R,2R)-4,4-difluoro-2-phenylcyclohexane-1-carbonyl]-4-hydroxypiperidin-4-yl}methyl)-6-phenoxy-5-[(2,2,2-trifluoroethyl)amino]pyrimidin-4(3H)-one] gave a half-inhibitory concentration (IC50) of 1.25 µM.

`Nc1c(Oc2cccc(OC(F)(F)F)c2)ncn(CC2(O)CCN(C(=O)[C@@H]3CCC(F)(F)C[C@H]3c3ccccc3)CC2)c1=O` [Example 18, 5-amino-3-({1-[(1R,2R)-4,4-difluoro-2-phenylcyclohexane-1-carbonyl]-4-hydroxypiperidin-4-yl}methyl)-6-[3-(trifluoromethoxy)phenoxy]pyrimidin-4(3H)-one] registered an IC50 of 0.247 µM.

In the case of `Nc1c(Oc2cccc(S(F)(F)(F)(F)F)c2)ncn(CC2(O)CCN(C(=O)[C@@H]3CCC(F)(F)C[C@H]3c3ccccc3)CC2)c1=O` [Example 21, 5-amino-3-({1-[(1R,2R)-4,4-difluoro-2-phenylcyclohexane-1-carbonyl]-4-hydroxypiperidin-4-yl}methyl)-6-[3-(pentafluoro-λ^6-sulfanyl)phenoxy]pyrimidin-4(3H)-one], the IC50 was found to be 0.716 µM.
